Experimental data as given in ChEMBL document CHEMBL3137440, “DNDi T. cruzi fenarimol series dataset from which preclinical candidate EPL-BS0967 was identified (see also related datasets: CHEMBL3137386 and CHEMBL2448688)”.
Converted amounts (≈) assume the structure as drawn. “And” between values parts separate entries of the source, which are not always exact repeats. Equal entries are not always repeated.

Tests used:
[1] = DNDI: Lipophilicity (gLogD) at pH 7.4; details: buffer, pH 7.4
[2] = DNDI: Protein binding 10% serum RPMI; format: ADME; details: RPMI medium with 10% serum; read-out: % bound (converted)
Trypanosoma cruzi [3] = assay: (§1) DNDI: Chagas in Vitro; format: functional, organism-based, Tulahuen C4 (LacZ)
in vitro [4] = details: human, microsomes
[5] = DNDI: Cytotoxicity against L-6 rat myoblasts from skeletal musclE; details: L6 rat skeletal muscle myoblasts, IC50
[6] = DNDI: Solubility, 24 hour, FaSSIF, 37C; format: physicochemical; details: read-out: Equilibrium
[7] = DNDI: Solubility, 24 hour, 20 mM Citrate - pH 3, 37C; format: physicochemical; details: 20 mM citrate buffer, read-out: Equilibrium
[8] = (§2) DNDI: Metabolism; format: ADME, Canis lupus familiaris, Microsome; details: dog, microsomes
[9] = (§3) DNDI: Stability, 4 hour; format: ADME, cell-free; details: plasma
in vitro [10] = details: mouse, microsomes
[11] = DNDI: Lipophilicity (eLogD) at pH 5; format: physicochemical; details: buffer
[12] = DNDI: Solubility, 24 hour, 50 mM Phosphate - pH 2, 37C; format: physicochemical; details: 50 mM phosphate buffer, read-out: Equilibrium
[13] = DNDI: pKa; format: physicochemical; details: read-out: pKa(1)
in vitro [14] = details: mouse, microsomes; remark: listed apart in the source
[15] = DNDI: Protein binding in human liver microsomes; format: ADME, Microsome; details: read-out: % bound (converted)
[16] = DNDI: Protein binding in dog plasma; format: ADME, cell-free, Canis lupus familiaris; details: read-out: % bound
[17] = DNDI: Solubility, 24 hour, FeSSIF, 37C; format: physicochemical; details: read-out: Equilibrium
[18] = DNDI: Solubility in phosphate buffer at pH 6.5 determined by nephelometry
Trypanosoma cruzi [19] = assay: as §1; format: functional, Tulahuen C4 (LacZ)
[20] = DNDI: Lipophilicity in water; format: physicochemical
[21] = as §3; format: ADME, cell-free, Canis lupus familiaris; details: dog, plasma
[22] = DNDI: Protein binding in human plasma; format: ADME, cell-free; details: read-out: % bound
[23] = as §3; format: ADME, tissue-based; details: blood
Cytochrome P450 2D6 = Cytochrome P450 2D6 (Homo sapiens, UniProt P10635); assay: (§4) DNDI: CYP Inhibition; format: ADME
Cytochrome P450 1A2 = molecular target: T1, Cytochrome P450 1A2 (Homo sapiens, UniProt P05177); assay: as §4; format: ADME
T1 sequence (P05177 whole entry): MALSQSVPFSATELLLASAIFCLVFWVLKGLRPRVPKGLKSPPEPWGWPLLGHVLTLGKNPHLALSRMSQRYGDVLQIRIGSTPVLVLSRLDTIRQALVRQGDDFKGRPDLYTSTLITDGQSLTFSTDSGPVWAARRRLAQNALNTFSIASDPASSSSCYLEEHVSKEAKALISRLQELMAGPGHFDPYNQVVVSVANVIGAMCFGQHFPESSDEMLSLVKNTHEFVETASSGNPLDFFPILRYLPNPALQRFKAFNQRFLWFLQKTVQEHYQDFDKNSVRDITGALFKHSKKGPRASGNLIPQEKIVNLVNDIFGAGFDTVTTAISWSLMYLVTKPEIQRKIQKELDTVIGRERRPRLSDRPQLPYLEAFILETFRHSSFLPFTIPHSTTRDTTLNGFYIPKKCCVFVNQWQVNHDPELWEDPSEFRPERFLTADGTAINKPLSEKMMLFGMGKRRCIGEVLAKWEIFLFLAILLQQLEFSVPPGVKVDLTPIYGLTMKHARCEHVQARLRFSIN

[24] = as §3; format: ADME, tissue-based, Canis lupus familiaris; details: dog, blood
[25] = DNDI: Protein binding in rat plasma; format: ADME, cell-free; details: read-out: % bound
[26] = DNDI: Solubility, 24 hour, SGF, 37C; format: physicochemical; details: read-out: Equilibrium
[27] = DNDI: Lipophilicity (gLogD) at pH 3; details: buffer, pH 3
[28] = DNDI: Protein binding in mouse plasma; format: ADME, cell-free; details: read-out: % bound
[29] = DNDI: Solubility in 0.01M HCl at pH 2 determined by nephelometry
[30] = DNDI: Lipophilicity (eLogD) at pH 7.4; format: physicochemical; details: buffer
in vitro [31] = details: human, microsomes; remark: listed apart in the source
[32] = DNDI: Solubility, 24 hour, 50 mM phosphate - pH 7.4, 37C; format: physicochemical; details: 50 mM phosphate buffer, read-out: Equilibrium
[33] = as §2; format: ADME, Microsome; details: rat, microsomes
Leishmania donovani = assay: DNDI: Inhibition of formation of Leishmania donovani; format: functional, MHOM/ET/67/L82; design: concentration or dose not given beside the values

Sequence of Cytochrome P450 2D6 (P10635 whole entry): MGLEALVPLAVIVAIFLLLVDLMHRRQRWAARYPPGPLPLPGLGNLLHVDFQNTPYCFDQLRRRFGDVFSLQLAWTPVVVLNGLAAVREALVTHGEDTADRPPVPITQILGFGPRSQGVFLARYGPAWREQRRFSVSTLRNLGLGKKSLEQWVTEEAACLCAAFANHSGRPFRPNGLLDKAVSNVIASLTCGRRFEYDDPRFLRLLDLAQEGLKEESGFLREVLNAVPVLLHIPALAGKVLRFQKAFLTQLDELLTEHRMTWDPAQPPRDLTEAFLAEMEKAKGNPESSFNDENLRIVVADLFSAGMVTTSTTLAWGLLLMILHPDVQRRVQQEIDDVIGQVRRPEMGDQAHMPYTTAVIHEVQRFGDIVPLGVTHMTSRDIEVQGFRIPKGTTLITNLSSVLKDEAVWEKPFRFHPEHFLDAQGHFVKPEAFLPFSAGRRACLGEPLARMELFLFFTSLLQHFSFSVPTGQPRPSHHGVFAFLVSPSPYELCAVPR

chromatographic logD [1]: > 5.3
fraction unbound [2]: 0.004
IC50 (Trypanosoma cruzi [3]): 17 nM
IC50 (Trypanosoma cruzi [3]; Trypanosoma cruzi, Tulahuen C4 (LacZ)): 14 nM
half-life (in vitro [4]): 0.75 h
solubility thermodynamic at 24 h [6]: < 0.25 µg/mL
solubility thermodynamic at 24 h [7]: 53.1 µg/mL (≈ 114 µM)
half-life [8]: 1.22 h
microsomal CLint [8]: 24 µL/min/mg
remaining at 4 h ([9]; human): 97%
remaining at 4 h ([9]; rat): 96%
half-life (in vitro [10]): 1.17 h
chromatographic logD [11]: > 6.07
solubility thermodynamic at 24 h [12]: 1430 µg/mL (≈ 3070 µM)
pKa [13]: 2.41
microsomal CLint (in vitro [14]): 25 µL/min/mg
fraction unbound [15]: 0.002
fraction unbound [16]: 0.01
solubility thermodynamic at 24 h [17]: 12.7 µg/mL (≈ 27.2 µM)
solubility kinetic [18]: < 1.6 µg/mL
IC90 (Trypanosoma cruzi [19]): 31 nM and 25 nM
logD [20]: > 5.95
remaining at 4 h [21]: 102%
fraction unbound [22]: < 0.001
remaining at 4 h ([23]; human): 101%
remaining at 4 h ([23]; rat): 115%
IC50 (Cytochrome P450 2D6): > 20000 nM
IC50 (Cytochrome P450 1A2): > 20000 nM
remaining at 4 h [24]: 108%
fraction unbound [25]: < 0.001
solubility thermodynamic at 24 h [26]: 9680 µg/mL (≈ 20800 µM)
chromatographic logD [27]: 5
fraction unbound [28]: < 0.001
solubility kinetic [29]: > 100 µg/mL
chromatographic logD [30]: > 6.05
microsomal CLint (in vitro [31]): 39 µL/min/mg
solubility thermodynamic at 24 h [32]: < 0.25 µg/mL
half-life [33]: 1.92 h
microsomal CLint [33]: 15 µL/min/mg
Compound: FC(F)(F)c1ccc(N(c2cccnc2)C2CCN(c3ccc(C(F)(F)F)cn3)CC2)cc1
IC50 [5]: > 100000 nM
% inhibition (Leishmania donovani): 37.9%
